Earlier results as cited in patent publication US20110246079A1, “INDIVIDUAL 5-FLUOROURACILE DOSE OPTIMIZATION IN FOLFOX TREATMENT” (Centre Regional De Lutte Contre, priority 2008, published 2011).

How the values were obtained:
patients = settings: 5-FU treatment
[1] = target: T1, dihydropyrimidine dehydrogenase (DPD) (Homo sapiens, UniProt Q12882); settings: subject with normal DPD enzymatic activity
T1 construct: This ubiquitous enzyme is a major factor of 5-FU biodisponibility, since in a subject with normal DPD enzymatic activity; endogenous in cells; host or cells: Subject or patient in vivo (enzyme described as ubiquitous)
T1 sequence (Q12882 4-1025): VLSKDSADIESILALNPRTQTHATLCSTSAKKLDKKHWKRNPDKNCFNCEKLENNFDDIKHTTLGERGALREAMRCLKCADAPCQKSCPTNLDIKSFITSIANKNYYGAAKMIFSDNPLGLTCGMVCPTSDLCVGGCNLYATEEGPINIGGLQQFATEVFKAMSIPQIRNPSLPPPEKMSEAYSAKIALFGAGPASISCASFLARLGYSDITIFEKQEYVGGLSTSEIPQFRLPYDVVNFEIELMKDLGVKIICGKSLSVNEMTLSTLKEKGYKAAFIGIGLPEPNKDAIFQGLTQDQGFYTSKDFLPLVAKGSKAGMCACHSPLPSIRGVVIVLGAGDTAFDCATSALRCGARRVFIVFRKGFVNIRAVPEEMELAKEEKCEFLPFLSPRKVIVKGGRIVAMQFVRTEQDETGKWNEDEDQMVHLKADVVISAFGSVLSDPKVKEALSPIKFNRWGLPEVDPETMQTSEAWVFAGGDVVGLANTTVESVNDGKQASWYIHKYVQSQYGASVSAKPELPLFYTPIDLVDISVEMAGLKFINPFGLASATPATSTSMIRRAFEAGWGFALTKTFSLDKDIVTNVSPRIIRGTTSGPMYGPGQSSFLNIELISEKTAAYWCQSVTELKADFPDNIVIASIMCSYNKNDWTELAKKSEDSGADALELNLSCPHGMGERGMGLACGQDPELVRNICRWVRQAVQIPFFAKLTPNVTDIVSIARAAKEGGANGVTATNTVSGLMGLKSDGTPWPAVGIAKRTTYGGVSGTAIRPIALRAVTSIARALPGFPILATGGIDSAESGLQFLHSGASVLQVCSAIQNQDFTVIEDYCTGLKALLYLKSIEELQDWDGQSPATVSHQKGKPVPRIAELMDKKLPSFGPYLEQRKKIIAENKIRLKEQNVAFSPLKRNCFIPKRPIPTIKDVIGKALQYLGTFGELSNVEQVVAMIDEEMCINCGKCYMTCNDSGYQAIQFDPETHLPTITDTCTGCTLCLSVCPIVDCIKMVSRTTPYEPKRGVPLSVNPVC

5-FU metabolism = settings: in vivo

Row | SMILES | death, treated patients (patients) [%] | very early polyvisceral toxicity, patients (patients) | severe grade 3-4 toxicity (patients; standard doses) | time for 5-FU plasmatic levels to reach a plateau (after the beginning of the 5-FU continuous infusion) | half-life in blood (in vivo) | administered 5-FU available for / metabolized by the anabolic pathway [1] [%] | effect on 5-FU metabolism (5-FU metabolism)
1 | O=c1[nH]cc(F)c(=O)[nH]1 [5-FU, 5-fluorouracile] | 0.8 | 5-8% | 20-25% | about 1 hour | very short | 20 | –
2 | O=C1[O][Pt]2([NH][C@@H]3CCCC[C@H]3[NH]2)[O]C1=O [oxaliplatin] | – | – | – | – | – | – | inhibits 5-FU metabolism
